# From ChEMBL document CHEMBL1201862, “PubChem BioAssay data set” (2004)
#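 Dose response: 5 concentrations. Exposure: 48 h. Format: 96-well plates. Endpoint: linear interpolation; highest concentration if not reached. GI50: concentration for 50% inhibition of growth.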 Active and inactive are the calls of the source. Cut-off read from the data, not from the text of the source: active = GI50 up to about 1.1 µM and inactive = higher.
# Key:
# Assay in all cases: growth of human tumour cells (NCI), 48 h
# [1] = system: EKVX
# [2] = system: SF-539
# [3] = system: HCT-116
# [4] = system: CCRF-CEM
# [5] = system: ACHN
# [6] = system: K562
# [7] = system: DMS-273
# [8] = system: DMS-114
# [9] = system: HCT-15
# [10] = system: IGROV-1
# [11] = system: NCI-H522
# [12] = system: TK-10
# [13] = system: COLO 205
# [14] = system: LXFL 529
# [15] = system: SK-MEL-2
# [16] = system: HT-29
# [17] = system: NCI-H23
# [18] = system: RXF 631
# [19] = system: DLD-1
# [20] = system: SF-268
# [21] = system: A549
# [22] = system: OVCAR-3
# [23] = system: OVCAR-8
# [24] = system: SF-295
# [25] = system: HL-60
# [26] = system: SNB-19
# [27] = system: OVCAR-5
# [28] = system: U-251
# [29] = system: SK-OV-3
# [30] = system: UO-31
# [31] = system: UACC-257
# [32] = system: LOX IMVI
# [33] = system: KM-20L2
# [34] = system: Malme-3M
# [35] = system: HCC 2998
# [36] = system: NCI-H226
# [37] = system: UACC-62
# [38] = system: M14
# [39] = system: SN12C
# [40] = system: A498
# [41] = system: SNB-75
# [42] = system: SW-620
# [43] = system: M19-MEL
# [44] = system: SK-MEL-28
# [45] = system: KM12
# [46] = system: HOP-18
# [47] = system: CAKI-1
# [48] = system: RPMI-8226
# [49] = system: HOP-92
# [50] = system: MOLT-4
# [51] = system: 786-0
# [52] = system: SK-MEL-5
# [53] = system: RXF 393
# [54] = system: OVCAR-4
# [55] = system: NCI-H460
# [56] = system: SNB-78
# [57] = system: HOP-62
smiles,measurement,setting,value
[O-][S+]1Nc2c(Cl)cc(Cl)c3c(Cl)cc(Cl)c(c23)N1,GI50,[1],59.7 µM (inactive)
same,GI50,[2],36.7 µM (inactive)
same,GI50,[3],34.1 µM (inactive)
same,GI50,[4],31.6 µM (inactive)
same,GI50,[5],27.7 µM (inactive)
same,GI50,[6],41.5 µM (inactive)
same,GI50,[7],39.4 µM (inactive)
same,GI50,[8],36.3 µM (inactive)
same,GI50,[9],32.1 µM
same,GI50,[10],58.5 µM (inactive)
same,GI50,[11],22.7 µM (inactive)
same,GI50,[12],42.6 µM (inactive)
same,GI50,[13],> 100 µM (inactive)
same,GI50,[14],40.3 µM (inactive)
same,GI50,[15],47 µM (inactive)
same,GI50,[16],41.9 µM (inactive)
same,GI50,[17],29.1 µM (inactive)
same,GI50,[18],31.8 µM (inactive)
same,GI50,[19],28.6 µM (inactive)
same,GI50,[20],34.6 µM (inactive)
same,GI50,[21],29.6 µM (inactive)
same,GI50,[22],30.6 µM (inactive)
same,GI50,[23],32.4 µM (inactive)
same,GI50,[24],53.1 µM (inactive)
same,GI50,[25],34.2 µM (inactive)
same,GI50,[26],40.3 µM (inactive)
same,GI50,[27],27.8 µM (inactive)
same,GI50,[28],28.2 µM (inactive)
same,GI50,[29],45.7 µM (inactive)
same,GI50,[30],51.8 µM (inactive)
same,GI50,[31],54.7 µM (inactive)
same,GI50,[32],32.8 µM (inactive)
same,GI50,[33],46.5 µM (inactive)
same,GI50,[34],43.8 µM (inactive)
same,GI50,[35],28.4 µM (inactive)
same,GI50,[36],25.1 µM (inactive)
same,GI50,[37],22.3 µM (inactive)
same,GI50,[38],31.8 µM (inactive)
same,GI50,[39],34.6 µM (inactive)
same,GI50,[40],21.9 µM (inactive)
same,GI50,[41],26.1 µM (inactive)
same,GI50,[42],37.2 µM (inactive)
same,GI50,[43],32.4 µM (inactive)
same,GI50,[44],62.8 µM (inactive)
same,GI50,[45],44.6 µM (inactive)
same,GI50,[46],34.1 µM (inactive)
same,GI50,[47],32.4 µM (inactive)
same,GI50,[48],37.8 µM (inactive)
same,GI50,[49],21.3 µM (inactive)
same,GI50,[50],22.6 µM (inactive)
same,GI50,[51],18.5 µM (inactive)
same,GI50,[52],37.8 µM (inactive)
same,GI50,[53],21.9 µM (inactive)
same,GI50,[54],25.6 µM (inactive)
O=C(Cc1nc2ccccc2o1)C(=O)Nc1cccc(C(F)(F)F)c1,GI50,[1],> 100 µM (inactive)
same,GI50,[2],> 100 µM (inactive)
same,GI50,[3],> 100 µM (inactive)
same,GI50,[4],> 100 µM (inactive)
same,GI50,[5],> 100 µM (inactive)
same,GI50,[6],> 100 µM (inactive)
same,GI50,[7],> 100 µM (inactive)
same,GI50,[55],> 100 µM (inactive)
same,GI50,[8],> 100 µM (inactive)
same,GI50,[9],> 100 µM
same,GI50,[10],> 100 µM (inactive)
same,GI50,[11],> 100 µM (inactive)
same,GI50,[12],> 100 µM (inactive)
same,GI50,[13],> 100 µM (inactive)
same,GI50,[56],> 100 µM (inactive)
same,GI50,[14],> 100 µM (inactive)
same,GI50,[15],> 100 µM (inactive)
same,GI50,[16],> 100 µM (inactive)
same,GI50,[17],> 100 µM (inactive)
same,GI50,[18],> 100 µM (inactive)
same,GI50,[19],> 100 µM (inactive)
same,GI50,[20],> 100 µM (inactive)
same,GI50,[21],> 100 µM (inactive)
same,GI50,[22],> 100 µM (inactive)
same,GI50,[23],> 100 µM (inactive)
same,GI50,[24],> 100 µM (inactive)
same,GI50,[25],> 100 µM (inactive)
same,GI50,[26],> 100 µM (inactive)
same,GI50,[27],> 100 µM (inactive)
same,GI50,[28],> 100 µM (inactive)
same,GI50,[29],> 100 µM (inactive)
same,GI50,[30],> 100 µM (inactive)
same,GI50,[31],> 100 µM (inactive)
same,GI50,[32],> 100 µM (inactive)
same,GI50,[33],> 100 µM (inactive)
same,GI50,[34],> 100 µM (inactive)
same,GI50,[35],> 100 µM (inactive)
same,GI50,[36],> 100 µM (inactive)
same,GI50,[37],> 100 µM (inactive)
same,GI50,[38],> 100 µM (inactive)
same,GI50,[39],> 100 µM (inactive)
same,GI50,[40],> 100 µM (inactive)
same,GI50,[41],> 100 µM (inactive)
same,GI50,[42],> 100 µM (inactive)
same,GI50,[57],> 100 µM (inactive)
same,GI50,[43],> 100 µM (inactive)
same,GI50,[44],> 100 µM (inactive)
same,GI50,[45],> 100 µM (inactive)
same,GI50,[46],45 µM (inactive)
same,GI50,[47],> 100 µM (inactive)
same,GI50,[48],> 100 µM (inactive)
same,GI50,[49],> 100 µM (inactive)
same,GI50,[50],> 100 µM (inactive)
same,GI50,[51],> 100 µM (inactive)
same,GI50,[52],> 100 µM (inactive)
same,GI50,[54],> 100 µM (inactive)
